Values after ≈ are worked out from the molar mass of the structure shown. Where two headings read alike, the source gives them in different places.
Columns and labels:
[1] = system: VZV; assay: VZV plaque reduction assay in human foreskin fibroblast cells; assay type: cell-based, Varicella Zoster Virus (Ellen strain)
Protocol: [table] Two days prior to use, HFF cells are plated into six-well plates and incubated at 37° C. with 5% CO2 and 90% humidity. On the date of assay, the drug is made up at twice the desired concentration in 2×MEM and then serially diluted 1:5 in 2×MEM using six concentrations of drug. […] The media is then aspirated from the wells and 0.2 mL of virus is added to each well in duplicate with 0.2 mL of media being added to drug toxicity wells. The plates are then incubated for one hour with shaking every fifteen minutes. […] The drug agarose mixture is applied to each well in 2 mL volume and the plates then incubated for three days, after which the cells were stained with a 1.5% solution of neutral red. At the end of 4-6 hr incubation period, the stain is aspirated, and plaques counted using a stereomicroscope at 10× magnification. The procedure is essentially the same as for the HSV plaque assay described above with two exceptions: 1. After addition of the drug, the plates are incubated for ten days. 2.

[2] = system: Measles Virus; assay: Measles virus antiviral assay (CPE inhibition, neutral red uptake, virus yield); assay type: cell-based, Measles virus strain CC; settings: Measles morbillivirus
[3] = system: EBV; assay: EBV assay: superinfection of Raji or Daudi cells with P3HR-1, immunofluorescence for EA and VCA; assay type: cell-based, Epstein-Barr Virus (P3HR-1)
Description: There are two prototypes of infectious EBV. One is exemplified by the virus derived from supernatant fluids of the P3HR-1cell line. This cell line produces nontransforming virus that causes the production of early antigen (EA) after primary infection or superinfection of B cell lines. The other prototype is exemplified by the B-95-8 virus. This virus immortalized cord blood lymphocytes and induced tumors in marmosets. […] The virus used in our assays is P3HR-1.
Ramos is an exceptional B cell line derived from Burkitt's lymphoma tumor but containing no detectable EBV genome copies and is EBNA negative. Ramos/AW was obtained by in vitro infection of Ramos with the P3HR-1 virus and contains one resident EBV genome copy/cell. Raji is a Burkitt's lymphoma cell line containing 60 EBV genomes/cell, and will be the primary cell used for screening antiviral activity against EBV EA expression. Daudi is a low level producer that contains 152 EBV genome copies/cell. It spontaneously expresses EBV EA in 0.25%-0.5% of the cells. It will be used in follow-up studies to confirm activity. These cell lines respond to superinfection by EBV by expressing EA(D), EA(R), and VCA. All cell lines are maintained in RPMI-1640 medium supplemented by 10% FCS, L-glutamine and 100 μg/mL gentamicin. The cultures are fed twice weekly and the cell concentration adjusted to 3×10^5/mL. The cells are kept at 37° C. in a humidified atmosphere with 5% CO2.
Cells are infected with the P3HR-1 strain of EBV and the drugs to be tested are added after adsorption (45 minutes at 37° C.) and washing of the cell cultures. The cultures are incubated for two days in complete medium to allow viral gene expression. Following the 48 hr incubation period, the number of cells of each sample are counted and smears made. Monoclonal antibodies to the different EA components and VCA are then added to the cells incubated and washed. This is followed by a fluorescein conjugated rabbit anti-mouse Ig antibody; and the number of fluorescence positive cells in the smears are counted. The total number of cells in the cultures positive for EA or VCA are then calculated and compared.

[4] = system: Rhinovirus; assay: Rhinovirus antiviral assay (CPE inhibition, neutral red uptake, virus yield); assay type: cell-based; settings: Enterovirus
[5] = system: Respiratory Syncytial Virus; assay: Respiratory syncytial virus antiviral assay (CPE inhibition, neutral red uptake); assay type: cell-based, Respiratory syncytial virus strain Utah 89; settings: human respiratory syncytial virus
[6] = system: HBV; assay: HBV replication in cultures of 2.2.15 cells (HBV DNA blot hybridization); assay type: cell-based
Protocol: Test compounds are then added daily for a continuous 9 day period. Culture medium (changed daily during the treatment period) is collected and stored for analysis of extracellular (virion) HBV DNA after 0, 3, 6, and 9 days of treatment. Treated cells are lysed 24 hours following day 9 of treatment for the analysis of intracellular HBV genomic forms. HBV DVA is then analyzed in a quantitative and qualitative manner for overall levels of HBV DNA (both extracellular and intracellular DNA) and the relative rate of HBV replication (intracellular DNA).
Both intracellular and extracellular HBV DNA are analyzed in order to (i) allow for verification of compound efficacy and (ii) provide possible data on the target site in the HBV replication pathway for the compound from examination of the pattern of viral replicative forms. The culture medium is changed daily during the treatment period to (i) prevent the buildup of potentially toxic metabolites derived from test compounds and (ii) provide an analysis of HBV virion production during discrete 24-hour intervals which enables a quantitative comparison of any effect on virion production.
The analysis of HBV DNA is performed using blot hybridization techniques (Southern and slot blot) and [^32P]-labeled HBV-specific probes. HBV DNA levels are measured by comparison to known amounts of HBV DNA standards applied to every nitrocellulose membrane (gel or slot blot). An AMBIS beta scanner, which measures the radioactive decay of the hybridized probes directly from the nitrocellulose membranes, is used for the quantitative analysis. Standard curves, generated by multiple analyses, are used to correlate CPM measurements made by the beta scanner with relative levels of target HBV DNA. The levels of HBV virion DNA released into the culture medium are analyzed by a slot blot hybridization procedure. HBV DNA levels are then compared to those at Day 0 to determine the effect of drug treatment.
The levels of RI and episomal monomers are used as an indicator of the relative level of HBV replication. Integrated HBV DNA is used to normalize the relative amounts of DNA in each lane because the levels of this class of HBV DNA would be expected to remain constant on a per cell basis. […] Inhibition of HBV DNA replication is indicated by the loss of RI without changes in the level of integrated HBV DNA.

[7] = system: HIV; assay: Anti-HIV evaluation by MTT-tetrazolium method (inhibition of CPE in MT-2 / CEM-SS cells); assay type: cell-based; settings: Human immunodeficiency virus 1, CEM-SS; read-out: Antiviral Activities (EC50) HIV
Protocol: This example illustrates the anti-HIV activity of various coumarin and chromene compounds which were evaluated using the published MTT-tetrazolium methods^8. Retroviral agents AZT and DDC were used as controls for comparison purposes.
The cells used for screening were the MT-2 and the human T4-lymphoblastoid cell line, CEM-SS, and were grown in RPMI 1640 medium supplemented with 10% fetal (v/v) heat-inactivated fetal calf serum and also containing 100 units/mL penicillin, 100 μg/mL streptomycin, 25 mM HEPES and 20 μg/mL gentamicin. The medium used for dilution of drugs and maintenance of cultures during the assay was the same as above. The HTLV-IIIB and HTLV-RF were propagated in CEM-SS. The appropriate amounts of the pure compounds for anti-HIV evaluations were dissolved in DMSO, then diluted in medium to the desired initial concentration. The concentrations (M medium) employed were […]; 0.001 μM; 0.0032 μM; 0.01 μM; 0.032 μM; 0.1 μM; 0.32 μM; 1 μM; 3.2 μM; 10 μM; 32 μM; and 100 μM. Each dilution was added to plates in the amount of 100 μL/well. Drugs were tested in triplicate wells per dilution with infected cells while in duplicate wells per dilution with uninfected cells for evaluation of cytotoxicity. On day 6 (CEM-SS cells) and day 7 (MT-2 cells) post-infection, the viable cells were measured with a tetrazolium salt, MTT (5 mg/mL), added to the test plates. A solution of 20% SDS in 0.001 N HCl is used to dissolve the MTT formazan produced. The optical density value was a function of the amount of formazan produced which was proportional to the number of viable cells. The percent inhibition of CPE per drug concentration was measured as a test over control and expressed in percent (T/C %).

[8] = CPE inhibition, read-out: Antiviral Activities (EC50) Measles (CPE)
[9] = neutral red (NR) dye uptake, read-out: Antiviral Activities (EC50) Measles (NR)
[10] = readout not stated, read-out: Antiviral Activities (EC50) Rhinovirus
[11] = readout not stated, read-out: Antiviral Activities (EC50) Respiratory Syncitial
[12] = Hepatitis B virus; read-out: Antiviral Activities (EC50) HBV
[13] = CPE inhibition, read-out: Antiviral Activities (EC50) Rhinovirus (CPE)
[14] = neutral red (NR) dye uptake, read-out: Antiviral Activities (EC50) Rhinovirus (NR)
[15] = Human alphaherpesvirus 3, Fibroblast; read-out: Antiviral Activities (EC50) VZV
[16] = human gammaherpesvirus 4; read-out: Antiviral Activities (EC50) EBV
[17] = CPE inhibition, read-out: Antiviral Activities (EC50) Respiratory Syncitial (CPE)
[18] = neutral red (NR) dye uptake, read-out: Antiviral Activities (EC50) Respiratory Syncitial (NR)

Row | Structure (SMILES) | EC50 ([1]; Human alphaherpesvirus 3, Fibroblast, read-out: Antiviral Activities (EC50) VZV) [µg/mL] | EC50 [2, 8] [µg/mL] | EC50 [2, 9] [µg/mL] | EC50 ([3]; human gammaherpesvirus 4, read-out: Antiviral Activities (EC50) EBV) [µg/mL] | EC50 [4, 10] [µg/mL] | EC50 [5, 11] [µg/mL] | EC50 [6, 12] [µg/mL] | EC50 [7] [µg/mL] | EC50 [4, 13] [µg/mL] | EC50 [4, 14] [µg/mL] | EC50 [1, 15] [µg/mL] | EC50 [3, 16] [µg/mL] | EC50 [5, 17] [µg/mL] | EC50 [5, 18] [µg/mL] | EC50 ([2]; read-out: Antiviral Activities (EC50) Measles (virus yield)) [µg/mL] | EC50 ([6]; Hepatitis B virus, read-out: Antiviral Activities (EC50) HBV) [µg/mL]
1 | CCCc1cc(=O)oc2cc(O)cc(O)c12 | 5.9 (≈ 26.8 µM) | > 100 | > 100 | > 50 | 27 (≈ 123 µM) | 6 (≈ 27.2 µM) | > 2.2 | – | – | – | – | – | – | – | – | –
2 | CCCc1cc(=O)oc2c3c(c4c(c12)OC(C)(C)[C@H](O)[C@H]4OC(=O)c1cccc(Cl)c1)O[C@H](C)[C@@H](C)[C@@H]3O | – | – | – | – | – | – | – | 8.4 (≈ 15.5 µM) | – | – | – | – | – | – | – | –
3 | CCCc1cc(=O)oc2cc(OCC(C)(C)C(=O)O)c3c(c12)OC(C)(C)C=C3 | – | > 100 | > 100 | – | – | > 100 | 2.6 (≈ 6.73 µM) | > 8 | 10 (≈ 25.9 µM) | 1 (≈ 2.59 µM) | – | – | – | – | – | –
4 | CCCc1cc(=O)oc2cc(OC(C)CCO[Si](C)(C)C(C)(C)C)c3c(c12)OC(C)(C)C=C3 (stereo not drawn) | – | – | – | – | – | – | – | > 18 | – | – | – | – | – | – | – | –
5 | CCCc1cc(=O)oc2cc(OC(=O)CC)cc(O)c12 | – | 2 (≈ 7.24 µM) | 1 (≈ 3.62 µM) | – | > 100 | 3 (≈ 10.9 µM) | > 3 | > 5 | – | – | > 20 | > 50 | – | – | – | –
6 | CCC/C(=C/C(=O)OC)c1c(O)c2c(c3c1OC(C)(C)[C@H](O)[C@H]3O)O[C@H](C)[C@@H](C)[C@@H]2O | – | 10 (≈ 22.9 µM) | 20 (≈ 45.8 µM) | – | – | – | > 4 | > 2 | 20 (≈ 45.8 µM) | 5 (≈ 11.5 µM) | > 20 | > 50 | 100 (≈ 229 µM) | > 100 | – | –
7 | CCCc1cc(=O)oc2cc(OS(=O)(=O)c3ccc(C)cc3)cc(OS(=O)(=O)c3ccc(C)cc3)c12 | – | 3 (≈ 5.68 µM) | 1 (≈ 1.89 µM) | – | – | – | – | > 3 | 2 (≈ 3.78 µM) | 1 (≈ 1.89 µM) | > 20 | > 50 | 2 (≈ 3.78 µM) | 1 (≈ 1.89 µM) | 3 (≈ 5.68 µM) | > 5
8 | CCCc1cc(=O)oc2cc(OC(C)CCO)c3c(c12)OC(C)(C)C=C3 (stereo not drawn) | – | – | – | – | – | – | – | 1.5 (≈ 4.18 µM) | – | – | – | – | – | – | – | –
9 | CCCc1cc(=O)oc2cc(OC(=O)C(C)(C)C)cc(OC(=O)C(C)(C)C)c12 | – | 2 (≈ 5.15 µM) | 3 (≈ 7.72 µM) | – | 20 (≈ 51.5 µM) | > 100 | > 4 | 2.2 (≈ 5.66 µM) | – | – | 5.6 (≈ 14.4 µM) | 3.7 (≈ 9.52 µM) | – | – | – | –

Reference: patent US20030176494A1, “Novel coumarin and chromene compounds and methods of preparation and use thereof for treating or preventing viral infections” (priority 2001, published 2003)
